The values below are quoted from earlier work in US11389549B2, “Diagnosis-treatment integrated nano-probe for 19F-MR/fluorescence multi-mode molecular imaging and drug-loading and preparation method and application of nano-probe” (Harbin Medical University, priority 2019, dated 2022).

Each structure is given as a SMILES string.

Regarding `C=CC(=O)Nc1cc(Nc2nccc(-c3cn(C)c4ccccc34)n2)c(OC)cc1N(C)CCN(C)C` [AZD9291], the “solubility in organic solvents” value (DMSO and other organic solvents) was “soluble to Dimethyl Sulfoxide (DMSO) and other organic solvents merely”. In addition, the solubility in water result (water) is given as “insoluble to water”.
